From US11292796B2 (SIGNAL PHARMACEUTICALS, LLC, priority 2008, dated 2022)

Molecular target: T1, mTOR (Homo sapiens, UniProt P42345)
T1 construct: purchased Invitrogen PR8683A
Experiment: mTOR HTR-FRET assay
Format: biochemical
Details: read-out: Act. Level (IC50 in mTor HTR-FRET assay)
In short: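 Test compounds, taken from 10 mM DMSO stocks and diluted, were mixed with mTOR enzyme (0.200 μg/mL) in Tris buffer pH 7.4 with 100 mM NaCl, 0.1% Tween-20 and 1 mM DTT. ATP/substrate addition initiated the reaction, alongside compound-free controls.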

T1 sequence (P42345 1360-2549 limits assumed): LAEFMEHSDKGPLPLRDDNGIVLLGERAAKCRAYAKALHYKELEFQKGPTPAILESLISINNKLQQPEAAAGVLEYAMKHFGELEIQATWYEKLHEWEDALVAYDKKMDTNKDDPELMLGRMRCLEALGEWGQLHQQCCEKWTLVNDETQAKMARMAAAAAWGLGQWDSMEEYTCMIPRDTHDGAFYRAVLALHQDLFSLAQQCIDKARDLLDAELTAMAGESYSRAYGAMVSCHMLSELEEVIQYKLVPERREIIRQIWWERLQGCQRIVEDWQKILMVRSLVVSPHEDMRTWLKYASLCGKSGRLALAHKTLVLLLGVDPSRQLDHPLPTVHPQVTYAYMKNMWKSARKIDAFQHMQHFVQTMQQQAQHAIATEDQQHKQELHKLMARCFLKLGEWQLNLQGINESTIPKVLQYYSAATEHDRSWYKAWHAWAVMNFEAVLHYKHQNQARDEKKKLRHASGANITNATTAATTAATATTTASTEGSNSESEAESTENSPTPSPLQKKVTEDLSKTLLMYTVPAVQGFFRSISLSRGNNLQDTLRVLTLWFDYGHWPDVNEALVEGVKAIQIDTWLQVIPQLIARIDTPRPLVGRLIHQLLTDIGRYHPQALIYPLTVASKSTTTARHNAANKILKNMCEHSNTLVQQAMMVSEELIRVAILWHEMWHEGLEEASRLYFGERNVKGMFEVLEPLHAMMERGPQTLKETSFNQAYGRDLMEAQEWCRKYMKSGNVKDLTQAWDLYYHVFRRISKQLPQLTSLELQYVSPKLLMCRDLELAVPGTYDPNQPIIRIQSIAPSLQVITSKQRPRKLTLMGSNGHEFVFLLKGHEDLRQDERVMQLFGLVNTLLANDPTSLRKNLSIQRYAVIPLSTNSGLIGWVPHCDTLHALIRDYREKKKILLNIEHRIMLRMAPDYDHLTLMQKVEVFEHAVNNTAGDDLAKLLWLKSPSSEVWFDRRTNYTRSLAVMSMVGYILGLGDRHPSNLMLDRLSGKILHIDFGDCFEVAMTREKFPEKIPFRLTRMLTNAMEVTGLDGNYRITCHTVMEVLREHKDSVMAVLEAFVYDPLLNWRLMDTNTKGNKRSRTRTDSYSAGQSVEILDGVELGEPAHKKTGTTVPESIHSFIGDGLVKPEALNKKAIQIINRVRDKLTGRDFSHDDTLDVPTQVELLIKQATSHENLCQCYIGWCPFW

Row | Compound | IC50 [nM]
1 | CO[C@H]1CC[C@@H](CN2C(=O)CNc3ncc(-c4ccc(-c5nc[nH]n5)nc4)nc32)CC1 [Example 155, 7-(6-(1H-1,2,4-triazol-3-yl)pyridin-3-yl)-1-((cis-4-methoxycyclohexyl)methyl)-3,4-dihydropyrazino[2,3-b]pyrazin-2(1H)-one] | 0.005 to 250
2 | O=C1CNc2ncc(-c3c[nH]c4ncccc34)nc2N1CCC1CCOCC1 [Example 152, 7-(1H-pyrrolo[2,3-b]pyridin-3-yl)-1-(2-(tetrahydro-2H-pyran-4-yl)ethyl)-3,4-dihydropyrazino[2,3-b]pyrazin-2(1H)-one] | 0.005 to 250
3 | CO[C@H]1CC[C@H](N2C(=O)CNc3ncc(-c4ccc(-c5nc[nH]n5)nc4)nc32)CC1 [Example 171, 7-(6-(1H-1,2,4-triazol-3-yl)pyridin-3-yl)-1-(trans-4-methoxycyclohexyl)-3,4-dihydropyrazino[2,3-b]pyrazin-2(1H)-one] | 0.005 to 250
4 | CO[C@@H]1CC[C@@H](CN2CC(=O)Nc3ncc(-c4ccc(C(C)(C)O)nc4)nc32)C1 [Example 54, 6-(6-(2-hydroxypropan-2-yl)pyridin-3-yl)-4-(((1R,3R)-3-methoxycyclopentyl)methyl)-3,4-dihydropyrazino[2,3-b]pyrazin-2(1H)-one] | 0.005 to 250
5 | O=C1CN(CCC2CCOCC2)c2nc(-c3ccc4cc[nH]c4c3)cnc2N1 [Example 44, 6-(1H-indol-6-yl)-4-(2-(tetrahydro-2H-pyran-4-yl)ethyl)-3,4-dihydropyrazino[2,3-b]pyrazin-2(1H)-one] | 250 to 500
6 | CO[C@H]1CC[C@@H](N2C(=O)CNc3ncc(-c4ccc(C(C)(C)O)nc4)nc32)C1 [Example 211, 7-(6-(2-hydroxypropan-2-yl)pyridin-3-yl)-1-((1R,3S)-3-methoxycyclopentyl)-3,4-dihydropyrazino[2,3-b]pyrazin-2(1H)-one] | 0.005 to 250
7 | CC(C)(O)c1ccc(-c2cnc3c(n2)N([C@H]2CC[C@@H](O)CC2)CC(=O)N3)cn1 [Example 102, 4-(cis-4-hydroxycyclohexyl)-6-(6-(2-hydroxypropan-2-yl)pyridin-3-yl)-3,4-dihydropyrazino[2,3-b]pyrazin-2(1H)-one] | 250 to 500
8 | CCN1C(=O)CNc2ncc(-c3ccc(-c4nc[nH]n4)nc3)nc21 [Example 164, 7-(6-(1H-1,2,4-triazol-3-yl)pyridin-3-yl)-1-ethyl-3,4-dihydropyrazino[2,3-b]pyrazin-2(1H)-one] | 0.005 to 250
9 | CO[C@@H]1CC[C@H](N2C(=O)CNc3ncc(-c4ccc(-c5nnc[nH]5)nc4C)nc32)C1 [Example 226, 1-((1S,3R)-3-methoxycyclopentyl)-7-(2-methyl-6-(4H-1,2,4-triazol-3-yl)pyridin-3-yl)-3,4-dihydropyrazino[2,3-b]pyrazin-2(1H)-one] | 0.005 to 250
10 | CO[C@H]1CC[C@H](N2CC(=O)Nc3ncc(-c4cnc(C(C)(C)O)cc4C)nc32)CC1 [Example 77, 6-(6-(2-hydroxypropan-2-yl)-4-methylpyridin-3-yl)-4-(trans-4-methoxycyclohexyl)-3,4-dihydropyrazino[2,3-b]pyrazin-2(1H)-one] | 0.005 to 250
11 | CO[C@H]1CC[C@H](N2CC(=O)Nc3ncc(-c4ccc(-c5nnc[nH]5)nc4C)nc32)C1 [Example 41, 4-((1S,3S)-3-methoxycyclopentyl)-6-(2-methyl-6-(4H-1,2,4-triazol-3-yl)pyridin-3-yl)-3,4-dihydropyrazino[2,3-b]pyrazin-2(1H)-one] | 0.005 to 250
12 | CC(C)(O)c1ccc(-c2cnc3c(n2)N(Cc2cccc(C#N)c2)C(=O)CN3)cn1 [Example 207, 3-((7-(6-(2-hydroxypropan-2-yl)pyridin-3-yl)-2-oxo-3,4-dihydropyrazino[2,3-b]pyrazin-1(2H)-yl)methyl)benzonitrile] | 0.005 to 250
13 | N#Cc1cccc(-c2cnc3c(n2)N(CCC2CCOCC2)CC(=O)N3)c1 [Example 34, 3-(6-oxo-8-(2-(tetrahydro-2H-pyran-4-yl)ethyl)-5,6,7,8-tetrahydropyrazino[2,3-b]pyrazin-2-yl)benzonitrile] | 500 to 1000
14 | CNc1nc2c(C)cc(-c3cnc4c(n3)N(CCOC)C(=O)CN4)cc2[nH]1 [Example 237, 1-(2-methoxyethyl)-7-(4-methyl-2-(methylamino)-1H-benzo[d]imidazol-6-yl)-3,4-dihydropyrazino[2,3-b]pyrazin-2(1H)-one] | 0.005 to 250
15 | Nc1ncc(-c2cnc3c(n2)N(CCC2CCOCC2)C(=O)CN3)cn1 [Example 182, 7-(2-aminopyrimidin-5-yl)-1-(2-(tetrahydro-2H-pyran-4-yl)ethyl)-3,4-dihydropyrazino[2,3-b]pyrazin-2(1H)-one] | 250 to 500
16 | CO[C@H]1CC[C@H](N2C(=O)CNc3ncc(-c4ccc(-c5nnc[nH]5)nc4C)nc32)C1 [Example 229, 1-((1S,3S)-3-methoxycyclopentyl)-7-(2-methyl-6-(4H-1,2,4-triazol-3-yl)pyridin-3-yl)-3,4-dihydropyrazino[2,3-b]pyrazin-2(1H)-one] | 0.005 to 250
17 | O=C1CNc2ncc(-c3ccc(-c4nc[nH]n4)nc3)nc2N1[C@H]1CC[C@@H](O)CC1 [Example 160, 7-(6-(1H-1,2,4-triazol-3-yl)pyridin-3-yl)-1-(cis-4-hydroxycyclohexyl)-3,4-dihydropyrazino[2,3-b]pyrazin-2(1H)-one] | 0.005 to 250

Row | Compound | IC50 [nM]
18 | CO[C@H]1CC[C@@H](N2CC(=O)Nc3ncc(-c4ccc(C#N)nc4C)nc32)CC1 [Example 94, 5-(8-(cis-4-methoxycyclohexyl)-6-oxo-5,6,7,8-tetrahydropyrazino[2,3-b]pyrazin-2-yl)-6-methylpicolinonitrile] | 1000 to 10000
19 | CO[C@H]1CC[C@H](N2CC(=O)Nc3ncc(-c4ccc(-c5nc[nH]n5)c(F)c4C)nc32)CC1 [Example 29, 6-(3-fluoro-2-methyl-4-(1H-1,2,4-triazol-3-yl)phenyl)-4-(trans-4-methoxycyclohexyl)-3,4-dihydropyrazino[2,3-b]pyrazin-2(1H)-one] | 0.005 to 250
20 | CC(C)(O)c1ccc(-c2cnc3c(n2)N(CC2CC2)CC(=O)N3)cn1 [Example 63, 4-(cyclopropylmethyl)-6-(6-(2-hydroxypropan-2-yl)pyridin-3-yl)-3,4-dihydropyrazino[2,3-b]pyrazin-2(1H)-one] | 250 to 500
21 | CC(C)(O)c1ccc(-c2cnc3c(n2)N([C@H]2CCOC2)CC(=O)N3)cn1 [Example 130, (S)-6-(6-(2-hydroxypropan-2-yl)pyridin-3-yl)-4-(tetrahydrofuran-3-yl)-3,4-dihydropyrazino[2,3-b]pyrazin-2(1H)-one] | 500 to 1000
22 | CC(C)(O)c1ccc(-c2cnc3c(n2)N(C2CCNCC2)CC(=O)N3)cn1 [Example 108, 6-(6-(2-hydroxypropan-2-yl)pyridin-3-yl)-4-(piperidin-4-yl)-3,4-dihydropyrazino[2,3-b]pyrazin-2(1H)-one] | 1000 to 10000
23 | CC(C)(O)c1ccc(-c2cnc3c(n2)N(Cc2ccc(C(F)(F)F)cc2)C(=O)CN3)cn1 [Example 257, 7-(6-(2-hydroxypropan-2-yl)pyridin-3-yl)-1-(4-(trifluoromethyl)benzyl)-3,4-dihydropyrazino[2,3-b]pyrazin-2(1H)-one] | 0.005 to 250
24 | NC(=O)c1cccc(-c2cnc3c(n2)N(CCC2CCOCC2)C(=O)CN3)c1 [Example 205, 3-(7-oxo-8-(2-(tetrahydro-2H-pyran-4-yl)ethyl)-5,6,7,8-tetrahydropyrazino[2,3-b]pyrazin-2-yl)benzamide] | 1000 to 10000
25 | Cc1nc(-c2nnc[nH]2)ccc1-c1cnc2c(n1)N(C)C(=O)CN2 [Example 197, 1-methyl-7-(2-methyl-6-(4H-1,2,4-triazol-3-yl)pyridin-3-yl)-3,4-dihydropyrazino[2,3-b]pyrazin-2(1H)-one] | 0.005 to 250
26 | CO[C@H]1CC[C@@H](CN2CC(=O)Nc3ncc(-c4ccc(-c5nc[nH]n5)nc4)nc32)CC1 [Example 7] | 0.005 to 250
27 | CO[C@H]1CC[C@@H](N2CC(=O)Nc3ncc(-c4ccc(-c5nnc[nH]5)nc4C)nc32)C1 [Example 38, 4-((1R,3S)-3-methoxycyclopentyl)-6-(2-methyl-6-(4H-1,2,4-triazol-3-yl)pyridin-3-yl)-3,4-dihydropyrazino[2,3-b]pyrazin-2(1H)-one] | 0.005 to 250
28 | CCN1CC(=O)Nc2ncc(-c3ccc(-c4nnc[nH]4)cc3)nc21 [Example 141, 6-(4-(4H-1,2,4-triazol-3-yl)phenyl)-4-ethyl-3,4-dihydropyrazino[2,3-b]pyrazin-2(1H)-one] | 250 to 500
29 | Cc1nc(-c2nnc[nH]2)ccc1-c1cnc2c(n1)N(CC1CCOCC1)C(C)(C)C(=O)N2 [Example 74, 3,3-dimethyl-6-(2-methyl-6-(4H-1,2,4-triazol-3-yl)pyridin-3-yl)-4-((tetrahydro-2H-pyran-4-yl)methyl)-3,4-dihydropyrazino[2,3-b]pyrazin-2(1H)-one] | 0.005 to 250
30 | CO[C@H]1C[C@H]2C(=O)Nc3ncc(-c4ccc(-c5nnc[nH]5)cc4C)nc3N2C1 [Example 113, 8-(4-(4H-1,2,4-triazol-3-yl)-2-methylphenyl)(2S,3aS)-2-methoxy-5,10,3a-trihydropyrazino[2,3-b]pyrrolidino[1,2-e]pyrazin-4-one] | 250 to 500
31 | Cc1nc(-c2nnc[nH]2)ccc1-c1cnc2c(n1)N(Cc1cccc(C#N)c1)C(=O)CN2 [Example 203, 3-((7-(2-methyl-6-(4H-1,2,4-triazol-3-yl)pyridin-3-yl)-2-oxo-3,4-dihydropyrazino[2,3-b]pyrazin-1(2H)-yl)methyl)benzonitrile] | 0.005 to 250
32 | CC(C)(O)c1ccc(-c2cnc3c(n2)N(CCc2ccccc2)CC(=O)N3)cn1 [Example 124, 6-(6-(2-hydroxypropan-2-yl)pyridin-3-yl)-4-phenethyl-3,4-dihydropyrazino[2,3-b]pyrazin-2(1H)-one] | 250 to 500
33 | Cc1cc(-c2nc[nH]n2)c(F)cc1-c1cnc2c(n1)N(C(C)C)CC(=O)N2 [Example 25, 6-(5-fluoro-2-methyl-4-(1H-1,2,4-triazol-3-yl)phenyl)-4-isopropyl-3,4-dihydropyrazino[2,3-b]pyrazin-2(1H)-one] | 0.005 to 250
